Results: patent publication US20110230553A1, “CRYSTALLIZED FORM OF DRONEDARONE BASE” (SANOFI-AVENTIS, priority 2010, published 2011)
Entries after “also recorded” stand apart in the source; their conditions may differ.

Tests used:
Type in all cases: physicochemical
[1] = Stability study in climatic chamber: appearance; conditions: after 15 and 30 days at 50° C./80% RH
Protocol: (§1) The stabilities of two crystalline forms of dronedarone base, namely form B according to the instant invention and form A described above, are studied in a climatic chamber (reference : Firlabo SP_BVEHF) at 50° C., with or without 80% relative humidity (RH). The duration time of the stability study is set up at 1 month. Samples are monitored in terms of appearance by microscope observation, chemical degradation by HPLC, crystalline form and phase change by XRPD (X-Ray Powder Diffraction, reference : Bruker D5000) and thermal behavior by DSC and TGA (references : TA Instrument Q100/Q1000 for DSC analyses and 050/Q500 for TGA analyses). HPLC is performed with a Waters 2487 apparatus, using as mobile phase a gradient of acetonitrile and pH 4.0 phosphate buffer (30/70 to 70/30, V/V, gradient).

[2] = Stability study in climatic chamber: crystalline form and phase change by XRPD
Protocol: as §1

[3] = Stability study in climatic chamber: thermal behavior by DSC and TGA
Protocol: as §1

[4] = Thermodynamic stability of the crystalline phases (DSC, X-ray at various temperatures); conditions: at and around room temperature / upon heating
Protocol: X-ray diffractograms registered at various temperatures from room temperature to 100° C., at intervals of 10° C., have confirmed the solid-solid transition from form A to form C. A first crystalline solid phase, designated as form A, exists from room temperature to […] Two crystalline forms are thus observed : form A from room temperature to about 50° C., and form C appearing above 50° C. and melting between 60 and 70° C.
All DSC measurements are performed with a Mettler DSC822e (module DSC822e/700/109/414935/0025). If not indicated differently, 40 μL Al-crucibles with sealed lid and hole are used. All measurements are carried out in a nitrogen gas flow of 50 mL/min and chosen heating rate was 10° C./min., with a heating from 25° C. to at least 150° C.
In comparison, the crystallized form C of dronedarone base presents a melting point at about 69° C. On heating with a rate of 10° C./min, form A transforms to form C at about 54° C.; on further heating, form C melts at about 65° C. (onset temperature of the second endothermic event). After formation of form C, if the heating is stopped below form C melting point and the medium is then cooled back to room temperature, form C typically transforms back to form A between 50 and 45° C.

[5] = Stability study in climatic chamber: chemical degradation by HPLC; conditions: 50° C. with or without 80% RH, up to 30 days
Protocol: as §1
The results in terms of chemical degradation are presented in table 8, which summarizes the content in degradation product measured in the samples. The results in table 8 represent percentages in impurities (impurities appearing after the storage for 15 to 30 days, i.e. total impurities after storage minus impurities already present at t=0).
The percentages correspond to the area under the peaks detected in chromatography.

[6] = Dynamic Vapor Sorption (DVS) moisture sorption/desorption isotherms; conditions: 25° C., relative humidity 0 to 95% and back, two cycles
Protocol: Moisture sorption/desorption isotherms are recorded on a DVS-1 from Surface Measurement Systems. Two cycles are run at 25° C., in which the relative humidity is stepped from 0 to 95% and back to 0%. The complete measurement time for both cycles is about 35 h. The data is evaluated using the software DVSWin V. 2.15.
The DVS isotherms of the crystallized form B of dronedarone base are represented on FIG. 5, wherein the change in dry mass (expressed in percentages) is plotted against the target relative humidity (RH, expressed in percentages). On FIG. 5, <<Sorp>> and <<Desorp>> respectively designate the humidity sorption and desorption of each cycle.

crystalline form change by XRPD ([2]; after 15 days at 50° C./80% RH) | change in the DSC spectrum after storage ([3]; stored at 50° C./80% RH) | thermodynamic stability of the solid form [4] | chemical stability compared under the same storage conditions [5] | crystalline form change by XRPD ([2]; all tested conditions, up to 30 days) | stability in terms of crystalline phase ([2]; storage at 50° C. with or without 80% RH) | change in the DSC spectrum after storage ([3]; whatever the storage conditions) | hygroscopicity [6] | Compound | appearance after storage (visual) [1]
appearance of some peaks of form B | additional endothermic peak | transforms to form C upon heating |  |  |  |  |  | CCCCc1oc2ccc(NS(C)(=O)=O)cc2c1C(=O)c1ccc(OCCCN(CCCC)CCCC)cc1 [Form A, 2-n-butyl-3-[4-(3-di-n-butylaminopropoxy)benzoyl]-5-methylsulfonamido-benzofuran] | yellow coloration; also recorded: agglomeration of the powder
 |  | thermodynamically most stable one | more stable than form A | no change is detected | more stable than form A | No change | low | CCCCc1oc2ccc(NS(C)(=O)=O)cc2c1C(=O)c1ccc(OCCCN(CCCC)CCCC)cc1 [Form B, 2-n-butyl-3-[4-(3-di-n-butylaminopropoxy)benzoyl]-5-methylsulfonamido-benzofuran] | no change is detected
 |  | unstable at room temperature |  |  |  |  |  | CCCCc1oc2ccc(NS(C)(=O)=O)cc2c1C(=O)c1ccc(OCCCN(CCCC)CCCC)cc1 [Form C, 2-n-butyl-3-[4-(3-di-n-butylaminopropoxy)benzoyl]-5-methylsulfonamido-benzofuran] | 
